# Reference: patent US8309341B2, “2-mercaptocyclopentanecarboxylic acid compounds, a process for their preparation and pharmaceutical compositions containing them” (Les Laboratories Server, priority 2009, dated 2012)
# Counter-ions that a name gives are not always drawn.
# Biological target: T1, TAFIa (purified human TAFI activated by thrombin-thrombomodulin complex) (Homo sapiens, UniProt Q96IY4)
# T1 construct: purchased American Diagnostica TAFI Activity Kit (catalogue number not given)
# T1 sequence (Q96IY4 115-423): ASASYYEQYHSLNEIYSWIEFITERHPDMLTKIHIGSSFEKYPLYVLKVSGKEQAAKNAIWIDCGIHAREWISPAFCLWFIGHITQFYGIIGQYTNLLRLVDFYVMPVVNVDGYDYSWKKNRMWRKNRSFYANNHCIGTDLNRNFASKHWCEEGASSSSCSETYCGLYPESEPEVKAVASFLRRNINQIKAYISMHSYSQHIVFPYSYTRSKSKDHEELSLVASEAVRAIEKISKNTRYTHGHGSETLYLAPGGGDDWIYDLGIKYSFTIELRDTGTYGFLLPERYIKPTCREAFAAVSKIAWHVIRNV
# Assay: Inhibition of TAFIa (chromogenic substrate, TAFI Activity Kit)
# Assay type: biochemical
# Conditions: 3.2 nM TAFIa; compound incubated 5 minutes at 20° C., chromogenic substrate 30 minutes at 37° C., OD at 490 nm; read-out: IC50 (concentration which inhibits 50% of the enzymatic activity of TAFIa)
# Protocol: Purified human TAFI (25 ng) is activated by adding thrombin-thrombomodulin complex in the presence of calcium chloride. After incubating for 20 minutes at 20° C., the reaction is stopped by adding the irreversible thrombin inhibitor PPACK (TAFI Activity Kit, American Diagnostica).
# The compound under test is added to the (3.2 nM) TAFIa solution and incubated for 5 minutes at 20° C. A chromogenic TAFIa substrate is added and then incubated for 30 minutes at 37° C. The enzymatic reaction is stopped by adding sulphuric acid (TAFI Activity Kit, American Diagnostica). The optical density (OD) of the solution is measured at 490 nm with the aid of a spectrophotometer (Spectramax, Molecular Devices). The OD value of a well containing the reagents without the TAFI is subtracted from each of the OD values measured. The percentage inhibition of TAFIa at a given concentration of the compound under test is determined using the following formula: % inhibition=100−[(OD of compound×100)/OD of carrier]
# The concentration of compound of the invention which inhibits 50% of the enzymatic activity of TAFIa (IC50) is calculated from the inhibition percentages of the OD values measured for increasing concentrations of the compound under test using non-linear regression according to a sigmoidal four-parameter equation (effect-dose).
row,SMILES,IC50
1,"NCCCC1(C(=O)O)CCCC1S (single isomer, unassigned) [Example 6, 1-(3-Aminopropyl)-2-mercaptocyclopentanecarboxylic acid trifluoroacetate (racemic cis diastereoisomer)]",14 ± 2 nM
2,"NCCCCC1(C(=O)O)CCCC1S (single isomer, unassigned) [Example 8, 1-(4-Aminobutyl)-2-mercaptocyclopentanecarboxylic acid trifluoroacetate (racemic cis diastereoisomer)]",178 ± 11 nM
3,"O=C(O)[C@@]1(CC2CCNCC2)CCC[C@H]1S (single isomer, unassigned) [Example 13, 2-Mercapto-1-(piperidin-4-ylmethyl)-cyclopentanecarboxylic acid trifluoroacetate (racemic cis diastereoisomer)]",184 ± 22 nM
4,"NCCC[C@@]1(C(=O)O)CCC[C@@H]1SS[C@H]1CCC[C@@]1(CCCN)C(=O)O [Example 20, (1R,2S,1′R,2′S)-2,2′-Disulphanediylbis[1-(3-aminopropyl)cyclopentane-carboxylic acid]dihydrochloride]",186 ± 26 nM

# Results, then the compound that gave them:
row,IC50,SMILES
1,81 ± 16 nM,"NCCCC[C@]1(C(=O)O)CCC[C@H]1S (single isomer, unassigned; enantiomer 2) [Example 10, 1-(4-Aminobutyl)-2-mercaptocyclopentanecarboxylic acid trifluoroacetate (cis diastereoisomer, enantiomer 2)]"
2,6.7 ± 0.6 nM,"NCCC[C@@]1(C(=O)O)CCC[C@@H]1S [Example 1, (1R,2S)-1-(3-Aminopropyl)-2-mercaptocyclopentanecarboxylic acid trifluoroacetate]"
3,22 ± 6 nM,"CC(=O)S[C@H]1CCC[C@@]1(CCCN)C(=O)O [Example 2, (1R,2S)-2-Acetylthio-1-(3-aminopropyl)-cyclopentanecarboxylic acid hydrochloride]"
4,7.4 ± 1.1 nM,"NCCC[C@@]1(C(=O)O)CCC[C@@H]1S [Example 3, (1R,2S)-1-(3-Aminopropyl)-2-mercaptocyclopentanecarboxylic acid hydrochloride]"
